Legend:
[1] = target: T1, Wee1 kinase domain (Homo sapiens, UniProt P30291); experiment: Wee1 Kinase Biochemical Assay (ADP-Glo); conditions: Wee1 kinase domain, 15 uM ATP, ADP-Glo
T1 construct: Wee1 kinase domain was purchased from Carna (catalog #05-177); purchased Carna 05-177
Procedure, shortened: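 1 nM enzyme; 15 uM ATP; 2 ng/mL poly(Lys,Tyr 4:1); 40 mM Tris-HCl, 20 mM MgCl2, 0.1 mg/mL BSA, 2 mM DTT; 4 h, 25 °C; ADP-Glo; % inhibition vs DMSO and saturating positive-control wells.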

[2] = test system: phosphorylation of Cdc2 Y15 (Wee1 substrate) in A427 cells; experiment: Phosphorylated Cdc2 MSD Electrochemiluminescence Assay; format: cell-based; conditions: Homo sapiens, A-427, pCDC2 MSD
Procedure, shortened: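 A427 cells (RPMI 1640, 10% FBS) treated 20 h after plating with 3-fold serial compound dilutions, in duplicate, 37 °C, 5% CO2; total incubation 6 h. Lysate Cdc2 pY15 read by MSD electrochemiluminescence sandwich immunoassay; % remaining signal normalised to DMSO (high) and reference Wee1 inhibitor (low) controls.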

T1 sequence (P30291 299-569 limits assumed): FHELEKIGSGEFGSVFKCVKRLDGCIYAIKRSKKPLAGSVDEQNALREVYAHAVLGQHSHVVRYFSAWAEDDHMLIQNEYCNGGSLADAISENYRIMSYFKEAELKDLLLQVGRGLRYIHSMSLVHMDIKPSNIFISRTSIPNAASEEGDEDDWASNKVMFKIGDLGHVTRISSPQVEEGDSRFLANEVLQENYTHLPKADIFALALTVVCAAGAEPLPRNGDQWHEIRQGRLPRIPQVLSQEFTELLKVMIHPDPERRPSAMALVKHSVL

SMILES | IC50 [1] [nM] | IC50 [2] [nM]
CN1CC(n2cc(Nc3ncc4c(n3)N(c3cccc(N=S(C)(C)=O)n3)[C@@H]3CC(C)(C)OC[C@]43C)cn2)C1 (single isomer, unassigned) [Example 207] | < 10 | 100 to 1000
CN1CCC[C@@H]1c1ccc(Nc2ncc3c(n2)N(c2cccc(N=S(C)(C)=O)n2)[C@@H]2CC(C)(C)OC[C@]32C)cn1 (single isomer, unassigned) [Example 210] | < 10 | 100 to 1000
CC1(C)C[C@H]2N(c3cccc(N=S(C)(C)=O)n3)c3nc(Nc4ccc([C@H]5CCCN5)nc4)ncc3[C@@]2(C)CO1 (single isomer, unassigned) [Example 212] | < 10 | 100 to 1000
CC1(C)C[C@H]2N(c3cccc(N=S(C)(C)=O)n3)c3nc(Nc4ccc([C@@H]5CCCN5)nc4)ncc3[C@@]2(C)CO1 (single isomer, unassigned) [Example 214] | < 10 | 100 to 1000
CN1CCC[C@H]1c1ccc(Nc2ncc3c(n2)N(c2cccc(N=S(C)(C)=O)n2)[C@@H]2CC(C)(C)OC[C@]32C)cn1 (single isomer, unassigned) [Example 216] | < 10 | 100 to 1000
CN1C[C@@H]2CN(c3ccc(Nc4ncc5c(n4)N(c4cccc(N=S(C)(C)=O)n4)[C@@H]4CC(C)(C)OC[C@]54C)cc3)C[C@@H]2C1 (single isomer, unassigned) [Example 217] | < 10 | 100 to 1000
CN1CCC(c2ncc(Nc3ncc4c(n3)N(c3cccc(N=S(C)(C)=O)n3)[C@@H]3CC(C)(C)OC[C@]43C)s2)CC1 (single isomer, unassigned) [Example 221] | < 10 | < 100
CC1(C)C[C@H]2N(c3cccc(N=S(C)(C)=O)n3)c3nc(Nc4cnn(C5COC5)c4)ncc3[C@@]2(C)CO1 (single isomer, unassigned) [Example 223] | < 10 | 100 to 1000
CN1CC[C@H](n2ccc(Nc3ncc4c(n3)N(c3cccc(N=S(C)(C)=O)n3)[C@@H]3CC(C)(C)OC[C@]43C)n2)C1 (single isomer, unassigned) [Example 225] | < 10 | 1000 to 10000
CN1CC[C@@H](n2ccc(Nc3ncc4c(n3)N(c3cccc(N=S(C)(C)=O)n3)[C@@H]3CC(C)(C)OC[C@]43C)n2)C1 (single isomer, unassigned) [Example 227] | < 10 | 1000 to 10000
CC1(C)C[C@H]2N(c3cccc(N=S(C)(C)=O)n3)c3nc(Nc4cn(C5COC5)cn4)ncc3[C@@]2(C)CO1 (single isomer, unassigned) [Example 232] | < 10 | 1000 to 10000
CC1(C)C[C@H]2N(c3cccc(N=S(C)(C)=O)n3)c3nc(Nc4ccn(C5CCOCC5)c(=O)c4)ncc3[C@@]2(C)CO1 (single isomer, unassigned) [Example 233] | < 10 | 100 to 1000
C[C@H]1COC(=O)N1c1cccc(N2c3nc(Nc4ccc(N5CCN(C)CC5)cc4)ncc3[C@]3(C)COC(C)(C)C[C@H]23)n1 (single isomer, unassigned) [Example 235] | < 10 | 100 to 1000
Cc1cc(Nc2ncc3c(n2)N(c2cccc(N4C(=O)OC[C@@H]4C)n2)[C@@H]2CC(C)(C)OC[C@]32C)ccc1N1CCN(C)CC1 (single isomer, unassigned) [Example 237] | < 10 | < 100
Cc1cc(Nc2ncc3c(n2)N(c2cccc(N4C(=O)OC[C@@H]4C)n2)[C@@H]2CC(C)(C)OC[C@]32C)ccc1C1CCN(C)CC1 (single isomer, unassigned) [Example 238] | < 10 | 100 to 1000
C[C@H]1COC(=O)N1c1cccc(N2c3nc(Nc4ccc(N5CCN(C)CC5)nc4)ncc3[C@@]3(C)COC(C)(C)C[C@@H]23)n1 (single isomer, unassigned) [Example 241] | < 10 | 100 to 1000
C[C@H]1COC(=O)N1c1cccc(N2c3nc(Nc4cnn(C5CCN(C)CC5)c4)ncc3[C@@]3(C)COC(C)(C)C[C@@H]23)n1 (single isomer, unassigned) [Example 243] | < 10 | < 100
C[C@H]1COC(=O)N1c1cccc(N2c3nc(Nc4ccc(N5C[C@@H]6C[C@H]5CN6C)cc4)ncc3[C@@]3(C)COC(C)(C)C[C@@H]23)n1 (single isomer, unassigned) [Example 245] | < 10 | 100 to 1000
C[C@H]1COC(=O)N1c1cccc(N2c3nc(Nc4ccc(N5C[C@H]6C[C@@H]5CN6C)cc4)ncc3[C@]3(C)COC(C)(C)C[C@H]23)n1 (single isomer, unassigned) [Example 246] | 10 to 100 | 1000 to 10000
C[C@H]1COC(=O)N1c1cccc(N2c3nc(Nc4ccc(N5C[C@H]6C[C@@H]5CN6C)cc4)ncc3[C@@]3(C)COC(C)(C)C[C@@H]23)n1 (single isomer, unassigned) [Example 247] | < 10 | 100 to 1000
C[C@H]1COC(=O)N1c1cccc(N2c3nc(Nc4ccc(C5CCN(C)CC5)cc4)ncc3[C@@]3(C)COC(C)(C)C[C@@H]23)n1 (single isomer, unassigned) [Example 251] | < 10 | 100 to 1000
C[C@H]1COC(=O)N1c1cccc(N2c3nc(Nc4cn(C5CCN(C)CC5)nn4)ncc3[C@@]3(C)COC(C)(C)C[C@@H]23)n1 (single isomer, unassigned) [Example 253] | < 10 | 100 to 1000

The next lines start with the values.

IC50 [1] [nM] | IC50 [2] [nM] | SMILES
< 10 | 100 to 1000 | CC1(C)C[C@H]2N(c3cccc(N=S(C)(C)=O)n3)c3nc(Nc4ccc([C@]5(C)CCNC5)cc4)ncc3[C@@]2(C)CO1 (single isomer, unassigned) [Example 171]
< 10 | < 100 | CC1(C)C[C@@H]2N(c3cccc(N=S(C)(C)=O)n3)c3nc(Nc4ccc([C@]5(C)CCNC5)cc4)ncc3[C@]2(C)CO1 (single isomer, unassigned) [Example 173]
< 10 | 100 to 1000 | CN1C[C@H]2C[C@@H]1CN2c1ccc(Nc2ncc3c(n2)N(c2cccc(N=S(C)(C)=O)n2)[C@@H]2CC(C)(C)OC[C@]32C)cc1F (single isomer, unassigned) [Example 176]
< 10 | 100 to 1000 | CN1CCC(c2ccc(Nc3ncc4c(n3)N(c3cccc(N=S(C)(C)=O)n3)[C@@H]3CC(C)(C)OC[C@]43C)cc2F)CC1 (single isomer, unassigned) [Example 177]
< 10 | 100 to 1000 | CN1C[C@@H]2C[C@H]1CN2c1ccc(Nc2ncc3c(n2)N(c2cccc(N=S(C)(C)=O)n2)[C@@H]2CC(C)(C)OC[C@]32C)cc1F (single isomer, unassigned) [Example 180]
< 10 | < 100 | CN1CC(c2ccc(Nc3ncc4c(n3)N(c3cccc(N=S(C)(C)=O)n3)[C@@H]3CC(C)(C)OC[C@]43C)cc2Cl)C1 (single isomer, unassigned) [Example 181]
< 10 | 100 to 1000 | CC1(C)C[C@H]2N(c3cccc(N=S(C)(C)=O)n3)c3nc(Nc4ccc(C5CNC5)c(F)c4)ncc3[C@@]2(C)CO1 (single isomer, unassigned) [Example 183]
< 10 | < 100 | CN1CC(c2ccc(Nc3ncc4c(n3)N(c3cccc(N=S(C)(C)=O)n3)[C@@H]3CC(C)(C)OC[C@]43C)cc2F)C1 (single isomer, unassigned) [Example 184]
< 10 | < 100 | CN1Cc2cc(Nc3ncc4c(n3)N(c3cccc(N=S(C)(C)=O)n3)[C@@H]3CC(C)(C)OC[C@]43C)cnc2C1 (single isomer, unassigned) [Example 188]
< 10 | 100 to 1000 | CC1(C)C[C@H]2N(c3cccc(N=S(C)(C)=O)n3)c3nc(Nc4ccc(C5CNC5)nc4)ncc3[C@@]2(C)CO1 (single isomer, unassigned) [Example 190]
< 10 | 100 to 1000 | CN1CC(c2ccc(Nc3ncc4c(n3)N(c3cccc(N=S(C)(C)=O)n3)[C@@H]3CC(C)(C)OC[C@]43C)cn2)C1 (single isomer, unassigned) [Example 192]
< 10 | 100 to 1000 | CC1(C)C[C@H]2N(c3cccc(N=S(C)(C)=O)n3)c3nc(Nc4cnn(C5CCOCC5)c4)ncc3[C@@]2(C)CO1 (single isomer, unassigned) [Example 194]
< 10 | 100 to 1000 | CN1CC[C@H](n2cc(Nc3ncc4c(n3)N(c3cccc(N=S(C)(C)=O)n3)[C@@H]3CC(C)(C)OC[C@]43C)cn2)C1 (single isomer, unassigned) [Example 198]
< 10 | 100 to 1000 | CN1CCC[C@H](n2cc(Nc3ncc4c(n3)N(c3cccc(N=S(C)(C)=O)n3)[C@@H]3CC(C)(C)OC[C@]43C)cn2)C1 (single isomer, unassigned) [Example 199]
< 10 | 100 to 1000 | CN1CCC[C@@H](n2cc(Nc3ncc4c(n3)N(c3cccc(N=S(C)(C)=O)n3)[C@@H]3CC(C)(C)OC[C@]43C)cn2)C1 (single isomer, unassigned) [Example 201]
< 10 | 100 to 1000 | CN1CCCC(n2cc(Nc3ncc4c(n3)N(c3cccc(N=S(C)(C)=O)n3)C3CC(C)(C)OCC43C)cn2)C1 (single isomer, unassigned) [Example 202]
< 10 | 100 to 1000 | CN1CCC(c2cc(Nc3ncc4c(n3)N(c3cccc(N=S(C)(C)=O)n3)[C@@H]3CC(C)(C)OC[C@]43C)on2)CC1 (single isomer, unassigned) [Example 204]
< 10 | < 100 | CN1CCC(n2cnc(Nc3ncc4c(n3)N(c3cccc(N=S(C)(C)=O)n3)[C@@H]3CC(C)(C)OC[C@]43C)c2)CC1 (single isomer, unassigned) [Example 205]

Source: patent US20260166039A1 (SCHRÖDINGER, INC., priority 2022, published 2026)
